# Test results reported in US20060240400A1, “High-density cell array board, process for producing the same and method of using the same” (priority 2003, published 2006).
# Tested on: rat primary hepatic solid tumor cells
# Experiment: Chemical assay on high-density cell array substrate (cell morphology after microdispensed dichlorobenzene)
# Assay type: cell-based
# Conditions: after 10 minutes, 37° C., 0-4.5 mM in steps of 0.5 mM in 10 pl culture medium, single cells on substrates of Examples 1-5
# Protocol: Poly-N-isopropylacrylamide, polyacrylamide and polydimethylsiloxane were used as cell adhesive polymer, hydrophilic polymer and highly hydrophobic polymer, respectively. These solutions were used for preparing each layer by the procedure described below. First, a solution of N-isopropylacrylamide monomer in isopropyl alcohol at the concentration shown in Table 1 was applied on a polystyrene base in an amount of 0.01 ml/cm^2 in order to prepare a cell adhesive polymer-coated domain. The coating was irradiated with electron beams at a dose of 0.25 MGy to coat the surface of the base with poly-N-isopropylacrylamide. After irradiation, the substrate was thoroughly washed with water and dried to give a substrate having a poly-N-isopropylacrylamide layer. Then, a solution of acrylamide monomer in isopropyl alcohol at the concentration shown in Table 1 was applied on the substrate in an amount of 0.01 ml/cm^2 in order to prepare a cell non-adhesive hydrophilic polymer-coated domain on the preceding layer. The coating was irradiated with electron beams at a dose similar to the value used in the method described above and then washed and dried to give a substrate having a polyacrylamide layer on the poly-N-isopropylacrylamide layer. […]
substance,measurement,value
dichlorobenzene,dichlorobenzene concentration in culture medium at which cells were morphologically altered,≥ 2.5 mM
